Earlier results on 2 compounds are cited in patent US12324811B2, “Intranasal formulation” (CIPLA LIMITED, priority 2018, dated 2025).

For data set [1] the following is noted: oral administration.
For data set [2] the following is noted: intranasally administered, children and adults.
The conditions of data set [3]: active metabolite.

On to Midazolam, for which the “drug reaching the bloodstream” value in data set [1] is listed as 50%. Moreover, in data set [2], the onset of action entry was “about 10 minutes”. For `OCc1ncc2n1-c1ccc(Cl)cc1C(c1ccccc1F)=NC2` [alpha1-hydroxymidazolam], in data set [3], the “contribution to biological activity of midazolam” value is recorded as 10%.
